Earlier results in patent publication US20110045550A1, “Fission Yeast Expressing Cytochrome P450 Reductase” (priority 2007, published 2011).

Assays:
[1] = molecular target: human P-glycoprotein ATPases (ABCB1 subfamily) (Homo sapiens, UniProt P08183)
[2] = pH=8.5

Chain of human P-glycoprotein ATPases (ABCB1 subfamily) (P08183 whole entry): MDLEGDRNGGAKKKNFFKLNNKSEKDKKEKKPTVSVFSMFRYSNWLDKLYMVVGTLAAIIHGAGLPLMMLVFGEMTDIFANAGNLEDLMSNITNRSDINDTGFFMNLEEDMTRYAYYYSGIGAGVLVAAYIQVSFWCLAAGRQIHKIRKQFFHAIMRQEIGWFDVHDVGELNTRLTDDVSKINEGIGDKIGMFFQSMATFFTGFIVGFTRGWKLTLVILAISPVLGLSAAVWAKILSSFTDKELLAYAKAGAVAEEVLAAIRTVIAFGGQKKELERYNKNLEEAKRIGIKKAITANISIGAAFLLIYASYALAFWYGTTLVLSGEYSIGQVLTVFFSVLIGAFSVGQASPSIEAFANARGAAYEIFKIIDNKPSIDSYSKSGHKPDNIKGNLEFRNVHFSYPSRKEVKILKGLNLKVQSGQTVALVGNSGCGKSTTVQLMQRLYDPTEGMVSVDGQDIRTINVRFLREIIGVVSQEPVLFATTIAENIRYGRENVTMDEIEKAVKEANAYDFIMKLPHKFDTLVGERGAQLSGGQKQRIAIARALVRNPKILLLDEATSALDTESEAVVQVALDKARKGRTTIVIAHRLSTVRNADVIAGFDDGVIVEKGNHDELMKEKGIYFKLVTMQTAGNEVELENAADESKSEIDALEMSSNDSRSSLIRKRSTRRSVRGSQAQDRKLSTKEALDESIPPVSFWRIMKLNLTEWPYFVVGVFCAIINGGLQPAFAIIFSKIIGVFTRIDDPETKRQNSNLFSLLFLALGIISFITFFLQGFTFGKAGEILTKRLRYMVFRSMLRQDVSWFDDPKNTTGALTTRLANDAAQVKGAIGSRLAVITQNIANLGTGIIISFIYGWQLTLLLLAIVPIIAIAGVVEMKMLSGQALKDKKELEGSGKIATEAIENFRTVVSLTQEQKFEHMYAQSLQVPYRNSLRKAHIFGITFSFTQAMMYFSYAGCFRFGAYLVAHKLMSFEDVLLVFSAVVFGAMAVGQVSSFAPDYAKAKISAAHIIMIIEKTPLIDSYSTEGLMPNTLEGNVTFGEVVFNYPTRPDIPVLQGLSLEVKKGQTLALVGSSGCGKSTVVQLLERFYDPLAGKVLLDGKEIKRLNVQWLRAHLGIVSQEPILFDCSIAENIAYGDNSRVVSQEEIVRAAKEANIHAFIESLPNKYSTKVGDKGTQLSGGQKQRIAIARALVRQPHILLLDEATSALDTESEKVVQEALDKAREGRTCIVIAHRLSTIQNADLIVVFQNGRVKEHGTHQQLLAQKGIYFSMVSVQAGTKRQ

SMILES | substrate for human P-glycoprotein [1] | solubility [2]
Cc1ncc2n1-c1ccc(Cl)cc1C(c1ccccc1F)=NC2 [midazolam] | very good substrate | around 150 μM
CC(NC(C)(C)C)C(=O)c1cccc(Cl)c1 (stereo not drawn) [bupropion] | weak substrate | –
